Measured values: publication PMC5067331, “Large Gliadin Peptides Detected in the Pancreas of NOD and Healthy Mice following Oral Administration” (Journal of Diabetes Research, 2016)
“Also recorded” adds a separate entry of the source. Where two headings read alike, the source gives them in different places. Ends that are not written are not given here.

What was measured:
[1] = MALDI-TOF MS of 33-mer fragments in plasma and pancreas after oral administration; settings: for Sample in which the 33-mer fragment was found: mice 6–20 weeks, 500–900 μg 33-mer p.o., plasma and pancreas 45–60 min after administration, sequence assigned by mass match
Protocol: Plasma was fractionated in Amicon Ultra 10 kDa centrifugal filter units (Merck Millipore), Vivaspin 500, 5 kDa filter units (Sartorius), PD10 columns, Amicon Ultra 0.5 mL 10 kDa centrifugal filters, or SEP-PAK C18 Plus short cartridges (Waters), or they were ethanol-precipitated or acid-ethanol extracted. Slices from nonfixed gels were extracted overnight at 37°C in 100 μL of 50 mM NH4CO3 with or without 12.5 ng/μL Endoproteinase Glu-C Sequencing Grade (Roche Diagnostics). The gel slices were further extracted on a shaker for 15 min in 20 μL extraction buffer (1 : 2 (vol/vol) 50 mM NH4HCO3/acetonitrile). The extracts were combined.
Samples were dried in a vacuum concentrator (Eppendorf 5301) and reconstituted in 20 μL 5% acetic acid before desalting using POROS C18 matrix and elution onto a stainless steel 96-well MALDI target plate with 1 μL α-cyano-4-hydroxycinnamic acid (HCCA matrix) ready-made from Agilent (6 mg/mL in 30% acetonitrile, 30% methanol, and 0.1% TFA) for dried droplet crystallization. Analysis was done on Bruker Ultraflex with Daltonics flexAnalysis software, externally calibrated using a standard peptide mixture (Bruker, range: 1,000–3,200 Da). Spectra were recorded in positive linear mode and summed from 100 laser shots.
The MS mass of 84 fragments >800 Da was calculated. They were randomly generated from the 33-mer sequence, allowing for deamidation of up to two glutamine residues (only one deamidation for Mr <1500 Da) and for sodium and potassium ion adduct formation. Measured masses were matched to the predicted masses, using a difference of <0.5 Da as threshold. Masses from negative control samples were matched using a threshold of 1.0 and removed.

[2] = MALDI-TOF MS of fragments formed in vitro during incubation of 33-mer in mouse plasma; assay type: in vitro ADME; settings: 33-mer in mouse plasma at 37°C, 5 kDa MWCO filtrate or SDS-PAGE gel slice, sequence assigned by mass match
Text: The extracts were combined.

[3] = SDS-PAGE and fluorography of blood after i.v. or p.o. administration; settings: mice, data not shown
[4] = Biodistribution of 3H label after oral administration (scintillation counting, tissue/blood ratio); settings: NOD mice, shortly after administration (Figure 1(a)), 0.01 < p < 0.05, N = 2–4 mice
Protocol: (§2) For initial evaluation of accumulation and elimination in blood, NOD mice (6–8 weeks) received 230–900 μCi ^3H-33-mer or ^3H-19-mer. […] Organs were incubated with SOLVABLE (Perkin-Elmer) at 55°C until dissolved and then with 30% hydrogen peroxide to decolorize the solution. Ultima Gold (Perkin Elmer) was added, and samples were counted 1 h later in a Packard 1600TR scintillation counter.
(§3) Specific activities (dpm/mg tissue) were calculated by dividing the counts by the respective weight of the sample that was measured. The tissue distribution was examined using the tissue/blood ratios. To compare responses in blood across different doses (230–900 μCi), data were normalized to a dosage of 100 μCi.
(§4) Before oral gavage, mice were starved for 4 h and were not fed until 20 min after.
(§5) One-way ANOVA with Tukey posttest was carried out using GraphPad Prism version 5.00 for Windows (GraphPad Software, San Diego, California, USA) to analyze the distribution of the label at each time point. The stomach and intestine were excluded from the analysis due to their large variation.

albumin and IgG = assay: Depletion of albumin and IgG from plasma, radioactivity in gel slices; assay type: in vivo, mouse
Text: (§1) Supplementary file 2424306.f1.docx: Fig Supp 1. […] Abbreviations are as in Fig 1.Fig Supp 2. […] CT: control 33-mer/19-mer. […] CT is control 33-mer. […] CT is control 33-mer.

[5] = In vitro incubation of 33-mer in blood plasma, SDS-PAGE and fluorography; assay type: in vitro ADME, C57BL/6 mouse; settings: C57BL/6 plasma with 33-mer 28.6 ng/µl, 0-4 h
Text: as §1

[6] = mouse, in vivo
Protocol: Heparin-plasma was prepared from tail blood at 0°C and analysed by SDS-PAGE without further processing, after depletion of albumin and IgG using a commercial kit (Protea Biosciences) or after digestion with trypsin (incubation with 125 mM dithiothreitol, 0.05% SDS at 53°C, pH 7.5 for 45 min, followed by digestion with trypsin (Fluka) at 37°C). The gel was fixed in 15% formalin/25% ethanol and Coomassie-stained. For fluorography, the fixed gels were soaked in 7% glycerol and Amplify Fluorographic Reagent (GE Healthcare), each for 30 min, dried, and exposed on Amersham Hyperfilm MP at −80°C. Subsequently, the dried gels were rehydrated in 7% acetic acid for 2–4 h and Coomassie-stained.
For scintillation counting, gel slices were excised from the nonfixed gel, covered with 600 μL of 30% hydrogen peroxide, and heated at 50°C overnight before measurement.
For kinetics studies, using SDS-PAGE and fluorography, 230 μCi ^3H-33-mer or 770 μCi of ^3H-19-mer was used for i.v. administration and 620–1200 μCi ^3H-33-mer was used for oral administration to NOD mice aged 6–8 weeks.
Blood and organs were sampled after 1, 24 and 72 h. […] Kinetics of 3H-33-mer and 3H-19-mer in mouse blood following i.v. and p.o. administration. 3H-33-mer (A) or 3H-19-mer (B) was given i.v. to NOD mice (6-8 weeks). Tail blood was analyzed by SDS-PAGE and fluorography at the indicated time points (min). CT: control 33-mer/19-mer. In (A, right), 660 µg of unlabeled 33-mer was injected prior to the labeled peptide. (C) 3H-33-mer was administered p.o. to NOD mice (6-8 weeks). Blood was analyzed after 0.5, 1 and 20 h. All lanes were loaded with the same amount of radioactivity. CT is control 33-mer. (D) Fluorogram of in vitro incubation of blood plasma from a C57BL/6 mouse with 33-mer (28.6 ng/µl or 222.000 dpm/µl) for 0-4 h. CT is control 33-mer. (E) Plasma from mice, that had received 3H-labelled 33-mer one hour earlier by i.v. or p.o. administration, was depleted of albumin and IgG. […] Data were normalized between lanes to contain identical amounts of radioactivity outside the albumin/IgG region. […]

trypsin = assay: Trypsin digestion of plasma/serum followed by SDS-PAGE and fluorography; assay type: in vitro ADME; settings: serum; dithiothreitol/SDS at 53°C pH 7.5 45 min, then trypsin at 37°C
Text: as §1

[7] = mouse, in vivo; remark: listed apart in the source
Protocol: (§6) Standard tissue sections were dipped in a 1 : 1 dilution in water of melted Kodak NTB Emulsion with 10% Amplify Fluorographic Reagent (GE Healthcare), air-dried, stored in the dark at 4°C with desiccant for 1–3 weeks, developed in Kodak D19 developer, fixed in Ilford Rapid Fixer, HE stained, and examined in an Olympus Bx51 microscope (UPlanSApo 20x, 0.40) equipped with a Colorview 1 camera and Analysis getIT software (Olympus).

[8] = LC-MS detection of 33-mer in plasma; assay type: in vivo, BALB/c mice; settings: BALB/c, methanol-TFA precipitation
Protocol: BALB/c mice, 4–16 weeks of age, were given 650–900 μg of 33-mer, either i.v. or p.o., and heparin-plasma was prepared 15–60 min later at 0°C. Protein inhibitors were added to the tissues that were homogenized, mixed with internal standard (GENESEQP:AZF58701), and precipitated with 50% methanol, 1% TFA, and centrifugation. The samples were analyzed using an Orbitrap XL (Thermo Scientific) equipped with a Nano LC (Easy nLC II, Thermo Scientific). The chromatographic system was a 10 cm, ID 75 μm, 3 μm C18-A2 column (Thermo Scientific) with a flow of 300 nL/min with 0.1% formic acid as mobile phase A and 0.1% formic acid in acetonitrile as B. The MS scan was performed using a resolution of 30000 and a scan range of 300–2000 m/z.

digestive proteases = settings: cited from earlier work
[9] = mouse, in vivo, po
Protocol: as §2, §3, §4, §5

[10] = Autoradiography of mouse tissues; settings: 1 h after oral administration
Protocol: as §6

Row | Compound | Sample in which the 33-mer fragment was found [1] | Sample (filtrate or gel slice range) in which the fragment was found [2] | further results
1 | LPYPQPELPYPQPQPF | Pancreas, NOD, C57BL/6 | – | –
2 | QPFPQPELPYPQPELPYPQPELPYPQPQ | Plasma, NOD, C57BL/6 | – | –
3 | LQPFPQPELPYPQPELPYPQPELPYPQPQ | Plasma, NOD, C57BL/6 | – | –
4 | QPFPQPELPYPQPELPYPQPELPYPQPQPF [33-mer fragment formed in mouse plasma in vitro, MALDI-TOF MS mass match] | – | 14–18 kDa | –
5 | QLQPFPQPELP | Plasma, NOD | – | –
6 | LQLQPFPQPELPYPQPELPYPQPELPYPQPQ [33-mer fragment formed in mouse plasma in vitro, MALDI-TOF MS mass match] | – | 14–17 kDa | –
7 | PFPQPELPYPQPELPYPQPELPYPQPQPF [33-mer fragment formed in mouse plasma in vitro, MALDI-TOF MS mass match] | – | 10–12 kDa | –
8 | LQLQPFPQPELPYPQPELPYPQPELPYPQP [33-mer fragment formed in mouse plasma in vitro, MALDI-TOF MS mass match] | – | 14–18 kDa | –
9 | ELPYPQPELPYPQPEL [33-mer fragment formed in mouse plasma in vitro, MALDI-TOF MS mass match] | – | Filtrate | –
10 | ELPYPQPELP | Plasma, NOD pancreas, C57BL/6 | – | –
11 | ELPYPQPELPYP | Plasma, NOD pancreas, NOD | – | –
12 | FPQPELPYPQPELPYPQPELPYPQPQPF [33-mer fragment formed in mouse plasma in vitro, MALDI-TOF MS mass match] | – | 10–12 kDa | –
13 | N[C@@H](Cc1ccc(O)cc1)C(=O)O [3H-tyrosine, tyrosine] | – | – | HMW band after injection [3]: appearance of the HMW band; Level of label in the pancreas relative to blood [4]: accumulated similarly to the 33- and 19-mer
14 | QPFPQPELP | Plasma, NOD | – | –
15 | QLQPFPQPEL | Pancreas, C57BL/6 | – | –
16 | ELPYPQPQPF | Plasma, NOD | – | –

Row | Compound | Sample in which the 33-mer fragment was found [1] | Sample (filtrate or gel slice range) in which the fragment was found [2] | further results
17 | FPQPELPY | Plasma, C57BL/6 | – | –
18 | YPQPELPYPQPQPF | Plasma, NOD, C57BL/6 | Filtrate | –
19 | ELPYPQPEL [33-mer fragment formed in mouse plasma in vitro, MALDI-TOF MS mass match] | – | Filtrate | –
20 | LQLQPFPQPELPYPQPE | Plasma, NOD | 4–6 kDa | –
21 | LQLQPFPQPELPYPQPELPYPQPELPYP | Plasma, NOD, C57BL/6 | – | –
22 | QLQPFPQPELPYPQPELPYPQPELPYPQPQP [33-mer fragment formed in mouse plasma in vitro, MALDI-TOF MS mass match] | – | 14–17 kDa | –
23 | ELPYPQPELPYPQPELPYPQPQPF [33-mer fragment formed in mouse plasma in vitro, MALDI-TOF MS mass match] | – | 14–18 kDa | –
24 | LQLQPFPQPE | Pancreas, C57BL/6 | – | –
25 | ELPYPQPELPYPQPELPY [33-mer fragment formed in mouse plasma in vitro, MALDI-TOF MS mass match] | – | Filtrate | –
26 | H-LQLQPFPQPELPYPQPELPYPQPELPYPQPQPF-OHY [33-mer] | – | 4–6 kDa, 6–9 kDa, 14–17 kDa | Label removed by depletion of albumin and IgG (albumin and IgG; 3H-33-mer added to blood in vitro, or cold peptide injected prior to labeled peptide): 14-15%; Label removed by depletion of albumin and IgG (albumin and IgG; blood of mice that had received 33-mer, regardless of route, plasma 1 h after administration): 35%; Formation of 12 kDa and HMW signals in vitro [5]: the 12 kDa signal, but not the HMW signal, also formed in vitro; Longest peptide detected in blood ([1]; after oral 33-mer): 32-mer; Emergence of higher molecular weight species (HMW) in blood after injection ([6]; iv): After 1 h, higher molecular weight species (HMW) emerged; 33-mer signal in blood after oral administration ([6]; po): still present in the blood, although in low amounts; Degradation by trypsin (trypsin): degrades albumin, but not 33-mer; Difference between i.v. and p.o. administration in autoradiography [7]: No difference was seen; Intact peptide in plasma after oral administration ([8]; 650 µg p.o., 60 min): detected intact peptide; also recorded: close to the detection limit, and the peptide was not detected in all mice; Intact peptide in plasma after intravenous administration ([8]; 850 µg i.v., 15, 30 and 60 min): detected intact peptide; Resistance to digestive proteases (digestive proteases): resistant to digestive proteases; Absorption from the intestine [9]: readily absorbed from the intestine; Level of label in the pancreas relative to blood [9]: high level of label; Presence of label at early time points [9]: present 1/2 h after administration and still remained 3 hours after oral administration; Label in zymogen granules of the pancreas [10]: high accumulation of label; Label in all other tissues examined ([10]; lung, kidney, ileum): homogenous labeling was observed
27 | H-LGQQQPFPPQQPYPQPQPF-OHY [19-mer] | – | – | Resistance to digestive proteases (digestive proteases): resistant to digestive proteases; Absorption from the intestine [9]: readily absorbed from the intestine; Level of label in the pancreas relative to blood [9]: high level of label; Presence of label at early time points [9]: present 1/2 h after administration and still remained 3 hours after oral administration
28 | ELPYPQPELPYPQ | Plasma, NOD | – | –
29 | LQLQPFPQPELPYPQPELPYPQPELPYPQPQP | Plasma, C57BL/6 | 4–6 kDa | Stability as originally described (digestive proteases): stable
30 | YPQPQPF | Plasma, NOD | Filtrate | –
31 | QPFPQPELPYPQPELPYPQPELPYPQPQP | Plasma, NOD, C57BL/6 | – | –
32 | QPFPQPELPY | Pancreas C57BL/6 | Filtrate | –
